Laboratory results reported in patent publication US20250230155A1 (Vanderbilt University, priority 2021, published 2025).
pEC50: −log10 of the molar value.

Target: T1, human mAChR M4 (Homo sapiens, UniProt P08173)
T1 construct: expressed in transfected cells
T1 sequence (P08173 1-479): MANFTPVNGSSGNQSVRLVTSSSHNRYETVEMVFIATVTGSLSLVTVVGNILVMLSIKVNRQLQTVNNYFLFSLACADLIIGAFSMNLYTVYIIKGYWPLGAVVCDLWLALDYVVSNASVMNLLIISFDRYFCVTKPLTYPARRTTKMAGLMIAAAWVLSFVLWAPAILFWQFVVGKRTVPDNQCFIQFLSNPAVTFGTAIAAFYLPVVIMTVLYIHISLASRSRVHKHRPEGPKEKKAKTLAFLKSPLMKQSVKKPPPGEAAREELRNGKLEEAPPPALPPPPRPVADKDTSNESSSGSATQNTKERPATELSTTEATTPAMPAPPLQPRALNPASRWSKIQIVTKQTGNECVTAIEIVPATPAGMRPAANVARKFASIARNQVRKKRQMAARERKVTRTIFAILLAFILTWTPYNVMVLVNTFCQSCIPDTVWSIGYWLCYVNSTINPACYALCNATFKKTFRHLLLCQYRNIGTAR
Assay: mAChR M4 cell-based functional assay (calcium mobilization, CHO-K1 hM4-Gqi5 cells)
Conditions: for pEC50: positive allosteric modulator activity, increase in the EC20 acetylcholine response, CHO-K1 hM4-Gqi5 cells, read-out: Human M4 EC50
Protocol: Human and rat M4 cDNAs, along with the chimeric G protein Gqi5, were transfected into Chinese hamster ovary (CHO-K1) cells purchased from the American Type Culture Collection using Lipofectamine2000. hM4-Gqi5 cells were grown in Ham's F-12 medium containing 10% heat-inactivated fetal bovine serum (FBS), 20 mM HEPES, 50 μg/mL G418 sulfate, and 500 μg/mL Hygromycin B. rM4-Ggi5 cells were grown in DiVEM containing 10% heat-inactivated FBS, 20 mM THEPES, 400 μμg/mL G418 sulfate, and 500 μμg/mL Hygromycin B.
For high throughput measurement of agonist-evoked increases in intracellular calcium, CHO-K1 cells stably expressing muscarinic receptors were plated in growth medium lacking G418 and hygromycin at 15,000 cells/20 μL/well in Greiner 384-well black-walled, tissue culture (TC)-treated, clear-bottom plates (VWR). Cells were incubated overnight at 37° C. and 5% CO2. The next day, cells were washed using an ELX 405 (BioTek) with assay buffer; the final volume was then aspirated to 20 μL. Next, 20 μL of a […] of Fluo-4/acetoxymethyl ester (Invitrogen, Carlsbad, CA), prepared as a 2.3 mM stock in DMSO and mixed in a 1:1 ratio with 10% (w/v) Pluronic F-127 and diluted in assay buffer, was added to the wells and the cell plates were incubated for 50 min at 37° C. and 5% C02. Dye was removed by washing with the ELX 405 and the final volume was aspirated to 20 μL. Compound master plates were formatted in an 11 point concentration-response curve (CRC) format (1:3 dilutions) in 100% DMSO with a starting concentration of 10 mM using a BRAVO liquid handler (Agilent). Test compound CRCs were then transferred to daughter plates (240 nL) using the Echo acoustic plate reformatter (Labcyte, Sunnyvale, CA) and then diluted into assay buffer (40 μL) to a 2× stock using a Thermo Fisher Combi (Thermo Fisher Scientific, Waltham, MA).
Calcium flux was measured using the Functional Drug Screening System (FDSS) 6000 or 7000 (Hamamatsu Corporation, Tokyo, Japan) as an increase in the fluorescent static ratio. Compounds were applied to cells (20 μL, 2×) using the automated system of the FDSS at 2-4 seconds into the protocol and the data were collected at 1 Hz. At 144 seconds, 10 μL of an EC20 concentration of the muscarinic receptor agonist acetylcholine was added (5×), followed by the addition of 12 μL of an EC80 concentration of acetylcholine at the 230 second time point (5×). Agonist activity was analyzed as a concentration-dependent increase in calcium mobilization upon compound addition. Positive allosteric modulator activity was analyzed as a concentration-dependent increase in the EC20 acetylcholine response. Antagonist activity was analyzed as a concentration-dependent decrease in the EC80 acetylcholine response. Concentration-response curves were generated using a four-parameter logistical equation in XLFit curve fitting software (IDBS, Bridgewater, NJ) for Excel (Microsoft, Redmond, WA) or Prism (GraphPad Software, Inc., San Diego, CA).
Compounds were synthesized as described above. Activity (EC50 and Emax) was determined in the mAChR M4 cell-based functional assay as described above and the data are shown in Table 2. The compound number corresponds to the compound numbers used in Table 1.

[1] = % ACh maximum at 30 μM, human M4
[2] = CHO-K1, % ACh maximum at 30 μM, human M4

SMILES	Emax [1]	pEC50	Emax at 30 µM [2]	Emax [2]	Emax (CHO-K1)
Cc1cc(C#N)cnc1N1CCc2ncc(N3CCCC3)cc2C1 [Example 1]		6.54	86%		
Cc1cc(C#N)cnc1N1CCc2ncc(Nc3ccc(F)cc3)cc2C1 [Example 2]		6.34	85%		
COc1ccc(CNc2cnc3c(c2)CN(c2ncc(C#N)cc2C)CC3)cc1F [Example 5]		5.62	63%		
Cc1cc(C#N)cnc1N1CCc2ncc(Nc3ccccn3)cc2C1 [Example 6]		6.65	77%		
Cc1cc(C#N)cnc1N1CCc2ncc(Nc3ccccc3F)cc2C1 [Example 7]		7.04	94%		
Cc1cc(C#N)cnc1N1CCc2ncc(NCC3CCCO3)cc2C1 (stereo not drawn) [Example 9]		6.11	76%		
Cc1c(C#N)nnc(N2CCc3ncc(-c4ccn(CC5CC5)n4)cc3C2)c1C [Example 10]		6.62			56%
Cc1cc(-c2cnc3c(c2)CN(c2nnc(C#N)c(C)c2C)CC3)ccn1 [Example 12]		6.56		67%	
Cc1c(C#N)nnc(N2CCc3ncc(-c4ccc5ncn(C)c5c4)cc3C2)c1C [Example 17]		6.25	33%		
Cc1c(C#N)nnc(N2CCc3ncc(Nc4c(F)cccc4Cl)cc3C2)c1C [Example 33]		6.71	66%		
Cc1c(C#N)nnc(N2CCc3ncc(Nc4cccc(Cl)c4F)cc3C2)c1C [Example 36]		6.16	66%		
Cc1ccc(F)c(Nc2cnc3c(c2)CN(c2nnc(C#N)c(C)c2C)CC3)c1 [Example 37]		6.36	57%		
Cc1nn(C)c(C)c1-c1cnc2c(c1)CN(c1nnc(C#N)c(C)c1C)CC2 [Example 296, 4,5-dimethyl-6-(3-(1,3,5-trimethyl-1H-pyrazol-4-yl)-7,8-dihydro-1,6-naphthyridin-6(5H)-yl)pyridazine-3-carbonitrile]		6.72	101%		
Cc1noc(C)c1-c1cnc2c(c1)CN(c1nnc(C#N)c(C)c1C)CC2 [Example 297, 6-(3-(3,5-dimethylisoxazol-4-yl)-7,8-dihydro-1,6-naphthyridin-6(5H)-yl)-4,5-dimethylpyridazine-3-carbonitrile]		6.57	83%		
Cc1ccc(-c2cnc3c(c2)CN(c2nnc(C#N)c(C)c2C)CC3)cn1 [Example 298, 4,5-dimethyl-6-(3-(6-methylpyridin-3-yl)-7,8-dihydro-1,6-naphthyridin-6(5H)-yl)pyridazine-3-carbonitrile]		6.28	93%		
COc1ccc(-c2cnc3c(c2)CN(c2nnc(C#N)c(C)c2C)CC3)cn1 [Example 299, 6-(3-(6-methoxypyridin-3-yl)-7,8-dihydro-1,6-naphthyridin-6(5H)-yl)-4,5-dimethylpyridazine-3-carbonitrile]		6.75	64%		
Cc1cnc2c(c1)CN(c1nnc(C#N)cc1C)CC2 [Example 305, 5-methyl-6-(3-methyl-7,8-dihydro-1,6-naphthyridin-6(5H)-yl)pyridazine-3-carbonitrile]		6.27			105%
Cc1cc(C#N)cnc1N1CCc2ncc(C(F)F)cc2C1 [Example 307, 6-(3-(difluoromethyl)-7,8-dihydro-1,6-naphthyridin-6(5H)-yl)-5-methylnicotinonitrile]		6.79			100%
Cc1cc(C#N)nnc1N1CCc2ncc(C(F)F)cc2C1 [Example 309, 6-(3-(difluoromethyl)-7,8-dihydro-1,6-naphthyridin-6(5H)-yl)-5-methylpyridazine-3-carbonitrile]		6.11			96%

The next lines start with results.

Emax [1]	pEC50	Emax at 30 µM [2]	Emax [2]	SMILES	Emax (CHO-K1)
96%	6.49			Cc1cc(C#N)cnc1N1Cc2cc(N3CCOCC3)cnc2C(C)C1 (single isomer, unassigned) [Example 406, 5-methyl-6-(8-methyl-3-morpholino-7,8-dihydro-1,6-naphthyridin-6(5H)-yl)nicotinonitrile]	
	6.21	91%		Cc1cc(C#N)nnc1N1Cc2cc(N3CCOCC3)cnc2C(C)C1 (single isomer, unassigned) [Example 407, 5-methyl-6-(8-methyl-3-morpholino-7,8-dihydro-1,6-naphthyridin-6(5H)-yl)pyridazine-3-carbonitrile]	
65%	6.16			Cc1cc(C#N)cnc1N1Cc2cc(N3CCOCC3)cnc2C(C)C1 (single isomer, unassigned) [Example 408, 5-methyl-6-(8-methyl-3-morpholino-7,8-dihydro-1,6-naphthyridin-6(5H)-yl)nicotinonitrile]	
	6.61	71%		Cc1c(C#N)nnc(N2CCc3ncc(Oc4ccc(F)cc4)cc3C2)c1C [Example 300, 6-(3-(4-fluorophenoxy)-7,8-dihydro-1,6-naphthyridin-6(5H)-yl)-4,5-dimethylpyridazine-3-carbonitrile]	
	6.58	57%		Cc1c(C#N)nnc(N2CCc3ncc(-c4ccc(C5CC5)nc4)cc3C2)c1C [Example 301, 6-(3-(6-cyclopropylpyridin-3-yl)-7,8-dihydro-1,6-naphthyridin-6(5H)-yl)-4,5-dimethylpyridazine-3-carbonitrile]	
	5.77	48%		COc1ccc(Oc2cnc3c(c2)CN(c2nnc(C#N)c(C)c2C)CC3)cn1 [Example 302, 6-(3-((6-methoxypyridin-3-yl)oxy)-7,8-dihydro-1,6-naphthyridin-6(5H)-yl)-4,5-dimethylpyridazine-3-carbonitrile]	
	5.79	48%		Cc1c(C#N)nnc(N2CCc3ncc(C(F)(F)F)cc3C2)c1C [Example 303, 4,5-dimethyl-6-(3-(trifluoromethyl)-7,8-dihydro-1,6-naphthyridin-6(5H)-yl)pyridazine-3-carbonitrile]	
	6.17	93%		Cc1cc(C#N)nnc1N1CCc2ncc(C(F)(F)F)cc2C1 [Example 304, 5-methyl-6-(3-(trifluoromethyl)-7,8-dihydro-1,6-naphthyridin-6(5H)-yl)pyridazine-3-carbonitrile]	
	7.64	109%		Cc1cc(C#N)cnc1N1CCc2ncc(Nc3ccnn3C)cc2C1 [Example 306, 5-methyl-6-(3-((1-methyl-1H-pyrazol-5-yl)amino)-7,8-dihydro-1,6-naphthyridin-6(5H)-yl)nicotinonitrile]	
	6.39	94%		Cc1c(C#N)nnc(N2CCc3ncc(C(F)F)cc3C2)c1C [Example 308, 6-(3-(difluoromethyl)-7,8-dihydro-1,6-naphthyridin-6(5H)-yl)-4,5-dimethylpyridazine-3-carbonitrile]	
	6.22	90%		Cc1cc(C#N)cnc1N1CCc2ncc(Oc3ccc(F)cc3F)cc2C1 [Example 310, 6-(3-(2,4-difluorophenoxy)-7,8-dihydro-1,6-naphthyridin-6(5H)-yl)-5-methylnicotinonitrile]	
